{
  "source": "patent US20180071284A1",
  "about": "“PREVENTING OR TREATING VIRAL INFECTION BY INHIBITION OF THE HISTONE METHYLTRANSFERASE EZH1 OR EZH2” (The United States of America, as represented by the …, priority 2015, published 2018)",
  "key": {"HSV-1 [1]": {"tested_on": "HSV-1", "test": "HSV-1 viral IE mRNA levels in infected HFF cells", "format": "cell-based, herpes simplex virus 1 (HSV-1)", "text": "The HFF cells were then infected with HSV-1 [2.0 PFU (plaque-forming units) per cell] for 1.5-hrs in the presence of inhibitor or DMSO. […] In the figures, the levels of HSV viral IE (ICP4, ICP22, and ICP27) and cellular control (TBP and SP1) mRNAs are expressed relative to cells treated with DMSO (vehicle). […] The HFF cells were then infected with HSV-1 (2.0, 5.0, and 10.0 PFU per cell) for 1.5-hrs in the presence of the inhibitor or DMSO. The levels of HSV viral IE (ICP0, ICP4, ICP22, and ICP27) and cellular controls (SP1 and TBP) mRNAs are expressed relative to cells treated with DMSO (vehicle). […] The levels of HSV viral IE (ICP0, ICP4, ICP22, and ICP27) and cellular control (SP1 and TBP) mRNAs are expressed relative to cells treated with DMSO (vehicle). […] HFF and Vero cells were then infected with HSV-1 (2.0 PFU per cell) for 1.5-hrs in the presence of inhibitor or DMSO. The levels of HSV viral IE (ICP0, ICP4, ICP22, and ICP27) and cellular control (SP1 and TBP) mRNAs are expressed relative to cells treated with DMSO (vehicle). […] HFF cells were treated with EZH1/2 catalytic inhibitor compound 4 (30 μM) or DMSO for 5-hrs. HFF cells were then mock or infected with HSV-1 (2.0 PFU per cell) for 1.5-hrs in the presence of inhibitor or DMSO. The levels of HSV viral IE (ICP4 and ICP27), control (SP1), and cellular innate interferon signaling (IFN-α, TNF-α, IL-8) mRNAs are expressed as absolute levels (absolute copies). […] HFF cells were treated with the EZH1/2 catalytic inhibitor compound 4 (5 μM) or DMSO for the indicated time as shown in FIG. 12. […] The levels of HSV viral IE (ICP0, ICP4, ICP22, and ICP27), control (TBP, ABAT, APOL3, UTX, and JMJD3), and cellular innate interferon signaling (IFN-α) mRNAs are expressed as ratios relative to cells treated with DMSO (vehicle). In this Example compound 4 was decreased to 5 μM and the duration of pretreatment was increased to 12, 24, and 48-hrs."}, "HSV-1 [2]": {"tested_on": "HSV-1", "test": "Mouse trigeminal ganglia explant reactivation model, viral yield titrated on Vero cells", "format": "cell-based, herpes simplex virus 1 (HSV-1)", "conditions": "explant 48-hrs; compound 1 35 μM, compound 3 30 μM, compound 4 30 μM", "procedure": "Trigeminal ganglia from HSV-1 latently infected mice were bisected. Half were explanted in media with control DMSO (vehicle), and the other half were explanted in media with ACV (100 μM), ML324 (50 μM), compound 1 (35 μM), compound 3 (30 μM), or compound 4 (30 μM) for 48-hrs to induce viral reactivation. Viral yields were determined by titrating on Vero cells. Each point represents the titer of one explanted trigeminal ganglia."}, "HSV-1 [3]": {"tested_on": "HSV-1", "test": "HSV-1 cellular and nuclear entry (viral DNA in total and nuclear fractions of HFF cells)", "format": "cell-based, herpes simplex virus 1 (HSV-1)", "conditions": "compound 1 35 μM, compound 4 30 μM, 5-hrs pretreatment, HSV-1 2.0 PFU per cell 1.5-hrs", "procedure": "HFF cells were treated with the EZH1/2 catalytic inhibitor compound 1 (35 μM), compound 4 (30 μM), or DMSO (vehicle) for 5-hrs. The HFF cells were then infected with HSV-1 (2.0 PFU per cell) for 1.5-hrs in the presence of the inhibitors or DMSO (vehicle). The levels of HSV viral DNA isolated from total and nuclear cellular fractions are expressed as ratios relative to DMSO (vehicle)."}, "IFN-α, TNF-α, IL-8 mRNAs": {"tested_on": "IFN-α, TNF-α, IL-8 mRNAs", "test": "Cellular innate interferon signaling mRNAs in mock or HSV-1 infected HFF cells", "format": "cell-based, human", "conditions": "30 μM, 5-hrs", "procedure": "HFF cells were treated with EZH1/2 catalytic inhibitor compound 4 (30 μM) or DMSO for 5-hrs. HFF cells were then mock or infected with HSV-1 (2.0 PFU per cell) for 1.5-hrs in the presence of inhibitor or DMSO. The levels of HSV viral IE (ICP4 and ICP27), control (SP1), and cellular innate interferon signaling (IFN-α, TNF-α, IL-8) mRNAs are expressed as absolute levels (absolute copies)."}, "HSV-1 [4]": {"tested_on": "HSV-1", "test": "Spread of HSV infection in HFF cells (UL29 staining)", "format": "cell-based, herpes simplex virus 1 (HSV-1)", "conditions": "HSV-1 MOI 0.01 for 8.5-hrs, then treated for 12.5-hrs (30 μM)", "procedure": "HFF cells were mock or infected with HSV-1 (MOI 0.01) for 8.5-hrs to allow one round of the viral replication program. The HFF cells were then treated with EZH1/2 inhibitor (compound 1 or compound 4 at 30 μM), viral DNA polymerase inhibitor (ACV at 100 μM), or JMJD3 inhibitor (ML324 at 50 μM) for an additional 12.5-hrs. Cells were paraformaldehyde fixed, permeabilized, and stained for the viral E gene UL29 and actin. The viral E protein UL29 was used as a marker for the spread of viral infection.\nHFF cells were mock or infected with HSV-1 (MOI 0.01) for 8.5-hrs to allow one round of the viral replication program. HFF cells were then treated with EZH1/2 (compound 1, compound 4), viral DNA polymerase (ACV), or JMJD3 (ML324) inhibitors for additional 12.5-hrs. Cells were paraformaldehyde fixed, permeabilized, and stained for the viral E gene UL29 and actin (Phalloidin). The viral E protein UL29 was used as a marker for the spread of viral infection."}, "HFF cells": {"tested_on": "HFF cells", "test": "Microarray analysis of HFF cells", "format": "cell-based, human", "conditions": "30 μM, 4-hrs", "text": "-[…] (2013), incorporated herein by reference). In normal fibroblast cells (as opposed to established cell lines or transformed cells lines), 41 genes are co-regulated by IFN (16%) and compound 4 treatment alone."}, "HSV-1 [5]": {"tested_on": "HSV-1", "test": "HSV-1 viral IE mRNA levels in infected Vero (IFN-β null, IRF3 deficient) cells", "format": "cell-based, herpes simplex virus 1 (HSV-1)", "conditions": "5-hrs pretreatment, HSV-1 2.0 PFU per cell", "procedure": "HFF (wild-type) and Vero (IFN-β null, IRF3 deficient) cells were treated with the indicated concentration of EZH1/2 catalytic inhibitor (compound 1 or 4) or DMSO (vehicle) for 5-hrs. HFF and Vero cells were then infected with HSV-1 (2.0 PFU per cell) for 1.5-hrs in the presence of inhibitor or DMSO. The levels of HSV viral IE (ICP0, ICP4, ICP22, and ICP27) and cellular control (SP1 and TBP) mRNAs are expressed relative to cells treated with DMSO (vehicle)."}, "[6]": {"conditions": "normal fibroblast cells data set"}},
  "note": "“Also recorded” adds a separate entry of the source.",
  "data": [
    {"smiles": "CC[C@H](C)n1cc(C)c2c(C(=O)NCc3c(C)cc(C)[nH]c3=O)cc(-c3ccc(N4CCNCC4)nc3)cc21", "note": "[compound 4, GSK126]", "values": [
      {"measurement": "effect of increasing the duration of pretreatment on HSV IE expression", "setting": "HSV-1 [1]; 5 μM, pretreatment 12, 24, and 48-hrs", "value": "enhanced the suppression of HSV IE expression"},
      {"measurement": "cellular control SP1 mRNA", "setting": "HSV-1 [1]; 30 μM, 5-hrs", "value": "no impact"},
      {"measurement": "HSV viral IE expression (ICP4 and ICP27 mRNA)", "setting": "HSV-1 [1]; 30 μM, 5-hrs, HSV-1 2.0 PFU per cell 1.5-hrs", "value": "represses HSV viral IE expression"},
      {"measurement": "HSV reactivation from latency (viral yield per explanted trigeminal ganglia)", "setting": "HSV-1 [2]", "value": "block HSV reactivation from latency"},
      {"measurement": "HSV-1 viral entry (total and nuclear)", "setting": "HSV-1 [3]", "value": "no impact"},
      {"measurement": "expression of innate antiviral signaling molecules IFN-α, TNF-α, and IL-8", "setting": "IFN-α, TNF-α, IL-8 mRNAs", "value": "induces the expression"},
      {"measurement": "spread of HSV infection to adjacent cells (UL29 marker)", "setting": "HSV-1 [4]", "value": "block the spread of HSV to adjacent cells; also recorded: block the spread of HSV infection"},
      {"measurement": "genes induced >2 fold that are co-regulated by IFN (Interferome)", "setting": "HFF cells", "value": 212, "unit": "genes"},
      {"measurement": "genes induced greater than 2 fold relative to vehicle (microarray)", "setting": "HFF cells", "value": 252, "unit": "genes"},
      {"measurement": "pro-inflammatory pathways induced (Ingenuity Pathway Analysis)", "setting": "HFF cells", "value": "IL6, IL17, TLR, HMGB1, and JAK/STAT signaling pathways"},
      {"measurement": "share of genes induced >2 fold that are co-regulated by IFN (Interferome)", "setting": "HFF cells", "value": 84, "unit": "%"},
      {"measurement": "genes co-regulated by IFN in normal fibroblast cells", "setting": "HFF cells; [6]", "value": 41, "unit": "genes"},
      {"measurement": "share of genes co-regulated by IFN in normal fibroblast cells", "setting": "HFF cells; [6]", "value": 16, "unit": "%"},
      {"measurement": "antiviral activity (HSV IE mRNA) in Vero cells as compared to HFF (wild-type) cells", "setting": "HSV-1 [5]", "value": "lack of antiviral activity"}
    ]}
  ]
}
